Earlier results, collected in patent publication US12503489B2, “Method for producing antibody-drug conjugate” (DAIICHI SANKYO COMPANY, LIMITED, priority 2017, dated 2025).

Molecular target: T1, topoisomerase I (Homo sapiens, UniProt P11387)
T1 sequence (P11387 1-765): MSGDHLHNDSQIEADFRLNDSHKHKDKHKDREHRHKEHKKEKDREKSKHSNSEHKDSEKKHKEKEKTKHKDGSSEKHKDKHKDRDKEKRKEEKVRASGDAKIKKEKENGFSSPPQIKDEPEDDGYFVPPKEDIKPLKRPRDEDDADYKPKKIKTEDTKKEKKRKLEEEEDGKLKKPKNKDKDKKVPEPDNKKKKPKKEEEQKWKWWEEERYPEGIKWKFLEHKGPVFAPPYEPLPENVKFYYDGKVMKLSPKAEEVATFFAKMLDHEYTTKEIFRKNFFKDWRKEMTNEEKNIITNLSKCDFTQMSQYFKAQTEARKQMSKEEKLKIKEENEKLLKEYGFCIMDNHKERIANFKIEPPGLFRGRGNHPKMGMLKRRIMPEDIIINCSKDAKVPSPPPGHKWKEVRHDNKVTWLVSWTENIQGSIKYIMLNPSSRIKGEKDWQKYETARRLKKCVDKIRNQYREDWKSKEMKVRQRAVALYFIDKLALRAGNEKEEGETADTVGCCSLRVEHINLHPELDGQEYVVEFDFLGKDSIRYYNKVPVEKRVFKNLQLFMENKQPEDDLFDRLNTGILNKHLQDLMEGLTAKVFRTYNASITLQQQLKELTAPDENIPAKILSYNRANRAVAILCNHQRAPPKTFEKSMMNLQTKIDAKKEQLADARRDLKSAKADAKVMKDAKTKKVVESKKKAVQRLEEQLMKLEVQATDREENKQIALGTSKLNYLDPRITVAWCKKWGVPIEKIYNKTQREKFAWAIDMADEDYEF
Conditions: Ogitani Y. et al., Clinical Cancer Research 2016; 22 (20): 5097-5108

For CC[C@@]1(O)C(=O)OCc2c1cc1n(c2=O)Cc2c-1nc1cc(F)c(C)c3c1c2[C@@H](NC(=O)CO)CC3 [formula (22)], the “topoisomerase I inhibitory effect” value is listed as “confirmed to have a topoisomerase I inhibitory effect”.
